Data published in patent US9708325B2, “Sulfonimidoylpurinone compounds and derivatives for the treatment and prophylaxis of virus infection” (Hoffmann-La Roche Inc., priority 2015, dated 2017).
Converted amounts (≈) assume the structure as drawn. Read-outs that look alike come from different tables or passages of the source. Blank lines part the entries; values can stand above or below the molecule they belong to.

Key:
CYP3A4 = assay: Cytochrome P450 induction screening assay, mRNA induction in human cryopreserved hepatocytes; type: in vitro ADME; conditions: 24 hours exposure
Text: Induction of cytochrome P450 enzymes is associated with an increased prevalence of clinical drug-drug interactions. The clinical consequences of induction may be therapeutic failure caused by a decreased systemic exposure of the drug itself or a co-administered therapy, or toxicity as a result of increased bioactivation. Cytochrome P450 (CYP450) induction assay has been used to understand the potential drug-drug interaction liabilities in drug discovery stage. Human cryopreserved hepatocytes (Life Technologies, Carlsbad, USA) were thawed and cultured in collagen I coated 96-well plates with a density of 52,000 cells/well. After attachment, hepatocyte maintenance medium (HMM; Lonza, Switzerland) was changed after cells were pre-cultured overnight. […] Medium change was then performed and cells were exposed for 24 hours to test compounds, positive inducer compounds, or vehicle (0.1% DMSO), respectively. At the end of the compound exposure period, medium was removed and cells lysed using 100 μL/well MagNA Pure LC RNA isolation tissue lysis buffer (Roche Diagnostics AG, Rotkreuz, Switzerland). […] mRNA isolation was performed using the MagNA Pure 96 system (Roche Diagnostics AG, Rotkreuz, Switzerland) and the respective cellular RNA large volume kit (Roche Diagnostics AG, Rotkreuz, Switzerland) from thawed samples diluted 1:1 with PBS. […] The resulting cDNA was diluted with 40 μL of H2O before using for qRT-PCR. qRT-PCR was performed by using the forward and the reverse primer, the corresponding Universal Probe Library (all from Microsynth, Balgach, Switzerland) and the Taqman Fast advanced master mix (Applied Biosystems), on an ABI 7900 machine (Applied Biosystems). qRT-PCR Ct-values for the respective P450s were put into relation to the Ct-value of RN18S1 (microsynth, Balgach, Switzerland) of the same sample. Doing so, a respective Δct-value was calculated. Using the average of all Δct-values for the vehicle control samples, a ΔΔct-value was calculated for each sample (ΔΔct-value(sample)=Δct-value(sample)−average of Δct-value of all vehicle controls). […] The individual fold induction values were then averaged per treatment condition (usually n=3 biological replicates).

human TLR7 = human TLR7 (Homo sapiens (Human), UniProt Q9NYK1); assay: HEK-Blue-hTLR7 cells assay (SEAP reporter); type: cell-based; conditions: 20 hrs, read-out: HEK-Blue-hTLR7 (EC50 (μM))
human TLR7, sequence (Q9NYK1 27-1049): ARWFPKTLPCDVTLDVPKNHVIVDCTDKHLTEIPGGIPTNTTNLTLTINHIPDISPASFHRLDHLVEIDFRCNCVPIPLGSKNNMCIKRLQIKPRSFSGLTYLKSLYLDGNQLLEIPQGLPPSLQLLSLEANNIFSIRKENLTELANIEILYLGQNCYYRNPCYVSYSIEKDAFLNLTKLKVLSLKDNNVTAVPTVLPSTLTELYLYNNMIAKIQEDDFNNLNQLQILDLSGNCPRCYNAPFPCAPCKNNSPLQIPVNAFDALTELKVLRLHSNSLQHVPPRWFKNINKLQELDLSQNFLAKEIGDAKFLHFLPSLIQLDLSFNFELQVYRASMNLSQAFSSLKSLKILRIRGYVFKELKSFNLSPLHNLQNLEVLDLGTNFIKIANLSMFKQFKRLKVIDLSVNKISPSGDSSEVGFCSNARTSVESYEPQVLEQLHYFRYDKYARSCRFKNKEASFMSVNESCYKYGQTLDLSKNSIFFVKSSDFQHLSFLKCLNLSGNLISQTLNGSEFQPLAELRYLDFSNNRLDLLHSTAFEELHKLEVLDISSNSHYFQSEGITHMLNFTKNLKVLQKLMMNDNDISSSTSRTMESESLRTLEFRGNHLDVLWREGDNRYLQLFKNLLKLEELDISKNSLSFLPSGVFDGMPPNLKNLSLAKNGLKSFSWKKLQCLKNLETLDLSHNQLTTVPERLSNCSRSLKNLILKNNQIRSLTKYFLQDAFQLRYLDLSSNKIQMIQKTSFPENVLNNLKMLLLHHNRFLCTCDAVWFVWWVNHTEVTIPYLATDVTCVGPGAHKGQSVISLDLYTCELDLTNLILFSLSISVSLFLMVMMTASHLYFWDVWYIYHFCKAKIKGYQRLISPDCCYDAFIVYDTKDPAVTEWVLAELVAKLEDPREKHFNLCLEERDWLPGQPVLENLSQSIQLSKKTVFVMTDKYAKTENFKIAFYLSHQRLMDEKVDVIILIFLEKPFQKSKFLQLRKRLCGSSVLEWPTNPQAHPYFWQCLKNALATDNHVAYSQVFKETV
Procedure, shortened: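 HEK-Blue cells stably carrying human TLR7 and an NF-κB-driven SEAP reporter, preincubated 24 h, then exposed to serially diluted compound (1% DMSO final) for 20 h at 37 °C. Supernatant SEAP measured with QUANTI-Blue substrate, 2 h at 37 °C, absorbance read at 620–655 nm.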

LYSA solubility = type: physicochemical; conditions: 0.05 M phosphate buffer, pH 6.5, aqueous buffer, thermodynamic from solid
Experimental: LYSA solubility assay is used to determine the aqueous solubility of a compound. Samples were prepared in duplicate from 10 mM DMSO stock solution. […] After one night, the solutions were filtered using a microtiter filter plate. Then the filtrate and its 1/10 dilution were analyzed by HPLC-UV.

[1] = Metabolic stability in human liver microsomes
Procedure, shortened: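 Test compound at 1 μM with 0.5 mg/mL microsomal protein in 100 mM potassium phosphate, pH 7.4, 37 °C, 10 min preincubation, reaction started with NADPH regenerating system. Sampled at 0, 3, 6, 9, 15 and 30 min, quenched with cold ACN, remaining parent by LC-MS/MS. No-NADPH controls at 0 and 30 min.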

[2] = patients with chronic hepatitis B, phase Ib; cited from earlier work
human TLR8 = human TLR8 (Homo sapiens (Human), UniProt Q9NR97); assay: HEK-Blue-hTLR8 cells assay and selectivity index; type: cell-based
human TLR8, sequence (Q9NR97 27-1041): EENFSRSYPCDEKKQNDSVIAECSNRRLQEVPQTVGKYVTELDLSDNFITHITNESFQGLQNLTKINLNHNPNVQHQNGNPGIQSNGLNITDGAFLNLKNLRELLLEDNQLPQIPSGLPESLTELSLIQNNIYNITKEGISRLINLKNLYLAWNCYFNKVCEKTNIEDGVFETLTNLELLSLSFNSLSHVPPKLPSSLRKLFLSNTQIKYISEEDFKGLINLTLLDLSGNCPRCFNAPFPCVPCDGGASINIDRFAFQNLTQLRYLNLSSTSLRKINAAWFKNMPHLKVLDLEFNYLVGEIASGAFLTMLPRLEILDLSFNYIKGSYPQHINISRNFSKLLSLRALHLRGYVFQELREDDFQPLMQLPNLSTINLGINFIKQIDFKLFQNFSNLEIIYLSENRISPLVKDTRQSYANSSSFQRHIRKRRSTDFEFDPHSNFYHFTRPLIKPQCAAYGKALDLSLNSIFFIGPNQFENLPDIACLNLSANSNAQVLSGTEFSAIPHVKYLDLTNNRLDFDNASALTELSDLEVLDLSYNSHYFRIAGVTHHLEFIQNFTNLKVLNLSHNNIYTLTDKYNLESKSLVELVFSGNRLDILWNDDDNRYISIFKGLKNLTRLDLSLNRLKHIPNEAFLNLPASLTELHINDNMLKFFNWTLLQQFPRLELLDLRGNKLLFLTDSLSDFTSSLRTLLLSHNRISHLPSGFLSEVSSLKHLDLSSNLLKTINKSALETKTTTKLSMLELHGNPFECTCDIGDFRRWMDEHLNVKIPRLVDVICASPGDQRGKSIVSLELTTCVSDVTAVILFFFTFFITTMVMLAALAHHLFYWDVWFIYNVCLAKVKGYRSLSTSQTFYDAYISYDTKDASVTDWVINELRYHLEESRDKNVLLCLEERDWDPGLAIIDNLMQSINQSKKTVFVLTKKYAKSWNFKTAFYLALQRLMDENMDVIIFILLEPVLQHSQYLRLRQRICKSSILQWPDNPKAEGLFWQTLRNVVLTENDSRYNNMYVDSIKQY
Experimental: A stable HEK-Blue-hTLR8 cell line was purchased from InvivoGen (Cat.#: HEK-Blue-htlr8, San Diego, Calif., USA). These cells were designed for studying the stimulation of human TLR8 by monitoring the activation of NF-κB. […] Therefore the reporter expression was regulated by the NF-κB promoter upon stimulation of human TLR8 for 20 hrs. The cell culture supernatant SEAP reporter activity was determined using QUANTI-Blue™ kit (Cat.#: rep-qb1, Invivogen, San Diego, Ca, USA) at a wavelength of 640 nm, a detection medium that turns purple or blue in the presence of alkaline phosphatase.
HEK-Blue-hTLR8 cells were incubated at a density of 250,000˜450,000 cells/mL in a volume of 180 μL in a 96-well plate in Dulbecco's Modified Eagle's medium (DMEM) containing 4.5 g/L glucose, 50 U/mL penicillin, […], […], 2 mM L-glutamine, 10% (V/V) heat-inactivated fetal bovine serum for 24 hrs. Then the HEK-Blue-hTLR8 cells were incubated with addition of 20 μL test compound in a serial dilution in the presence of final DMSO at 1% and perform incubation under 37° C. in a CO2 incubator for 20 hrs. Then 20 μL of the supernatant from each well was incubated with 180 μL Quanti-blue substrate solution at 37° C. for 2 hours and the absorbance was read at 620˜655 nm using a spectrophotometer. The signalling pathway that TLR8 activation leads to downstream NF-κB activation has been widely accepted, and therefore similar reporter assay was also widely used for evaluating TLR8 agonist (Tsuneyasu Kaisho and Takashi Tanaka, Trends in Immunology, Volume 29, Issue 7, July 2008, […]; Hiroaki Hemmi et al, Nature Immunology 3, 196-200 (2002)).
The ratio of TLR8 agonism activity compared to TLR7 agonism activity was defined as the selectivity index (EC50 (TLR8) value/EC50(TLR7) value) and calculated accordingly.

[3] = rat, IV 1 mpk, data from WO2016023511, cited from earlier work

Relative induction of Positive control (10 μM Rifampicin) (%) (CYP3A4): −0.72% | EC50 (human TLR7): 0.037 µM | solubility thermodynamic (LYSA solubility): 12 µg/mL (≈ 32.9 µM)
SMILES: CCCS(=N)(=O)c1nc(N)c2[nH]c(=O)n(Cc3ccc(F)cc3)c2n1 (stereo not drawn) [Example 24, 6-Amino-9-[(4-fluorophenyl)methyl]-2-(propylsulfonimidoyl)-7H-purin-8-one]

SMILES: CCCCOc1nc(N)c2c(n1)N(Cc1cccc(CN3CCCC3)c1)CC(=O)N2 [GS-9620]
Human Liver Microsome Clearance ([1]; 1 μM test compound, 0.5 mg/mL microsomal protein, 6.15 mL/min/kg is the limitation of assay sensitivity): 17.8 mL/min/kg | Human liver microsome clearance category ([1]; categorized low/medium/high): high (high (16.2-23.2 mL/min/kg)) | ISG15 mRNA induction [2]: dose-dependent ISG15 mRNA induction | Safety and tolerability [2]: safe, well tolerated | EC50 (human TLR8): 11.6 µM | Selective index (human TLR8; EC50(TLR8) value/EC50(TLR7) value): 14 | EC50 (human TLR7): 0.8 µM | Mean plasma concentration ([3]; 0.083 h): 170 nM | Mean plasma concentration ([3]; 0.25 h): 102 nM | Mean plasma concentration ([3]; 0.5 h): 65.4 nM | Mean plasma concentration ([3]; 1 h): 48.1 nM | Mean plasma concentration ([3]; 2 h): 21.6 nM | Mean plasma concentration ([3]; 4 h): 13 nM | Mean plasma concentration ([3]; 8 h): 4.17 nM | CO [3]: 220 nM
